Test results: patent publication US8952024B2, “Herbicidal pyrimidone derivatives” (E I du Pont de Nemours and Company, priority 2009, dated 2015)

Assays:
Assay type in all cases: in vivo
Settings in all cases: Postemergence
[1] = test system: bermudagrass (Cynodon dactylon); experiment: Test B pre-/postemergence plant response
Excerpt: (§1) Seeds of plant species selected from blackgrass (Alopecurus myosuroides), downy bromegrass (Bromus tectorum), green foxtail (Setaria viridis), Italian ryegrass (Lolium multiflorum), wheat (Triticum aestivum), wild oat (Avena fatua), deadnettle (henbit deadnettle, Lamium amplexicaule), galium (catchweed bedstraw, Galium aparine), bermudagrass (Cynodon dactylon), Surinam grass (Brachiaria decumbens), cocklebur (Xanthium strumarium), corn (Zea mays), large crabgrass (Digitaria sanguinalis), woolly cupgrass (Eriochloa villosa), giant foxtail (Setaria faberii), goosegrass (Eleusine indica), johnsongrass (Sorghum halepense), kochia (Kochia scoparia), lambsquarters (Chenopodium album), morningglory (Ipomoea coccinea), nightshade (eastern black nightshade, Solanum ptycanthum), yellow nutsedge (Cyperus esculentus), pigweed (Amaranthus retroflexus), ragweed (common ragweed, Ambrosia elatior), Russian thistle (Salsola kali), soybean (Glycine max), sunflower (common oilseed sunflower, Helianthus annuus) and velvetleaf (Abutilon theophrasti) were planted into a blend of loam soil and sand and treated preemergence with test compounds formulated in a non-phytotoxic solvent mixture which included a surfactant.
(§2) At the same time, plants selected from these crop and weed species and also winter barley (Hordeum vulgare), canarygrass (Phalaris minor), chickweed (Stellaria media) and windgrass (Apera spica-venti) were planted in pots containing Redi-Earth® planting medium (Scotts Company, 14111 Scottslawn Road, Marysville, Ohio 43041) comprising spaghnum peat moss, vermiculite, wetting agent and starter nutrients and treated with postemergence applications of some of the test chemicals formulated in the same manner. Plants ranged in height from 2 to 18 cm (1- to 4-leaf stage) for postemergence treatments.
(§3) Treated plants and controls were maintained in a greenhouse for 13 to 15 days, after which time all treated plants were visually evaluated and compared to controls. Plant response ratings, summarized in Table B, are based on a scale of 0 to 100 where 0 is no effect and 100 is complete control. A dash (-) response means no test result.

[2] = test system: blackgrass (Alopecurus myosuroides); experiment: Test B pre-/postemergence plant response
Excerpt: as §1, §2, §3

[3] = test system: downy bromegrass (Bromus tectorum); experiment: Test B pre-/postemergence plant response
Excerpt: as §1, §2, §3

[4] = test system: giant foxtail (Setaria faberii); experiment: Test B pre-/postemergence plant response
Excerpt: as §1, §2, §3

[5] = test system: green foxtail (Setaria viridis); experiment: Test B pre-/postemergence plant response
Excerpt: as §1, §2, §3

[6] = test system: johnsongrass (Sorghum halepense); experiment: Test B pre-/postemergence plant response
Excerpt: as §1, §2, §3

kochia (Kochia scoparia) = experiment: Test B pre-/postemergence plant response
Excerpt: as §1, §2, §3

[7] = test system: ragweed (common ragweed, Ambrosia elatior); experiment: Test B pre-/postemergence plant response
Excerpt: as §1, §2, §3

soybean (Glycine max) = experiment: Test B pre-/postemergence plant response
Excerpt: as §1, §2, §3

[8] = test system: velvetleaf (Abutilon theophrasti); experiment: Test B pre-/postemergence plant response
Excerpt: as §1, §2, §3

[9] = test system: wheat (Triticum aestivum); experiment: Test B pre-/postemergence plant response
Excerpt: as §1, §2, §3

wild oat (Avena fatua) = experiment: Test B pre-/postemergence plant response
Excerpt: as §1, §2, §3

[10] = test system: yellow nutsedge (Cyperus esculentus); experiment: Test B pre-/postemergence plant response
Excerpt: as §1, §2, §3

[11] = test system: canarygrass (Phalaris minor); experiment: Test B postemergence plant response
Summary of the method: (§4)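 Plants grown in peat/vermiculite medium were sprayed postemergence at 2–18 cm height (1- to 4-leaf stage). After 13–15 days in the greenhouse, response was rated visually against untreated controls on a 0–100 scale (0 no effect, 100 complete control).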

[12] = test system: chickweed (Stellaria media); experiment: Test B postemergence plant response
Summary of the method: as §4

[13] = test system: windgrass (Apera spica-venti); experiment: Test B postemergence plant response
Summary of the method: as §4

[14] = 31 g ai/ha, 0 to 100 scale (0 no effect, 100 complete control)
[15] = 125 g ai/ha, scale 0 (no effect) to 100 (complete control), 13 to 15 days
[16] = 250 g ai/ha, scale 0 to 100 (0 no effect, 100 complete control), 13 to 15 days
[17] = 62 g ai/ha, scale 0 to 100 (0 no effect, 100 complete control)

Compound: CCCCn1c(-c2ccccc2)ncc(C(=O)C2=C(O)C3CCC(C3)C2=O)c1=O (stereo not drawn) [Compound 240]
- Plant response rating, Bermudagrass [1, 14]: 98
- Plant response rating, Bermudagrass [1, 15]: 100
- Plant response rating, Bermudagrass [1, 16]: 100
- Plant response rating, Bermudagrass [1, 17]: 100
- Plant response rating, Blackgrass [2, 14]: 40
- Plant response rating, Blackgrass [2, 15]: 65
- Plant response rating, Blackgrass [2, 16]: 65
- Plant response rating, Blackgrass [2, 17]: 50
- Plant response rating, Bromegrass, Downy [3, 14]: 10
- Plant response rating, Bromegrass, Downy [3, 15]: 25
- Plant response rating, Bromegrass, Downy [3, 16]: 50
- Plant response rating, Bromegrass, Downy [3, 17]: 20
- Plant response rating, Foxtail, Giant [4, 14]: 100
- Plant response rating, Foxtail, Giant [4, 15]: 100
- Plant response rating, Foxtail, Giant [4, 16]: 100
- Plant response rating, Foxtail, Giant [4, 17]: 100
- Plant response rating, Foxtail, Green [5, 14]: 90
- Plant response rating, Foxtail, Green [5, 15]: 95
- Plant response rating, Foxtail, Green [5, 16]: 98
- Plant response rating, Foxtail, Green [5, 17]: 90
- Plant response rating, Johnsongrass [6, 15]: 100
- Plant response rating, Johnsongrass [6, 16]: 100
- Plant response rating, Johnsongrass [6, 17]: 100
- Plant response rating, Kochia (kochia (Kochia scoparia); [14]): 80
- Plant response rating, Kochia (kochia (Kochia scoparia); [15]): 100
- Plant response rating, Kochia (kochia (Kochia scoparia); [16]): 100
- Plant response rating, Kochia (kochia (Kochia scoparia); [17]): 98
- Plant response rating, Ragweed [7, 14]: 98
- Plant response rating, Ragweed [7, 15]: 100
- Plant response rating, Ragweed [7, 16]: 100
- Plant response rating, Ragweed [7, 17]: 98
- Plant response rating, Soybean (soybean (Glycine max); [14]): 95
- Plant response rating, Soybean (soybean (Glycine max); [15]): 95
- Plant response rating, Soybean (soybean (Glycine max); [16]): 100
- Plant response rating, Soybean (soybean (Glycine max); [17]): 95
- Plant response rating, Velvetleaf [8, 14]: 75
- Plant response rating, Velvetleaf [8, 15]: 85
- Plant response rating, Velvetleaf [8, 16]: 100
- Plant response rating, Velvetleaf [8, 17]: 85
- Plant response rating, Wheat [9, 14]: 30
- Plant response rating, Wheat [9, 15]: 50
- Plant response rating, Wheat [9, 16]: 50
- Plant response rating, Wheat [9, 17]: 35
- Plant response rating, Oat, Wild (wild oat (Avena fatua); [14]): 25
- Plant response rating, Oat, Wild (wild oat (Avena fatua); [15]): 45
- Plant response rating, Oat, Wild (wild oat (Avena fatua); [16]): 60
- Plant response rating, Oat, Wild (wild oat (Avena fatua); [17]): 40
- Plant response rating, Nutsedge, Yellow [10, 14]: 10
- Plant response rating, Nutsedge, Yellow [10, 15]: 20
- Plant response rating, Nutsedge, Yellow [10, 16]: 45
- Plant response rating, Nutsedge, Yellow [10, 17]: 15
- Plant response rating, Canarygrass [11, 14]: 5
- Plant response rating, Canarygrass [11, 15]: 30
- Plant response rating, Canarygrass [11, 16]: 40
- Plant response rating, Canarygrass [11, 17]: 5
- Plant response rating, Chickweed [12, 14]: 90
- Plant response rating, Chickweed [12, 15]: 100
- Plant response rating, Chickweed [12, 16]: 100
- Plant response rating, Chickweed [12, 17]: 98
- Plant response rating, Windgrass [13, 14]: 60
- Plant response rating, Windgrass [13, 15]: 98
- Plant response rating, Windgrass [13, 16]: 98
- Plant response rating, Windgrass [13, 17]: 80
